Tests used:
[1] = molecular target: KDM1A (LSD1) (Homo sapiens (Human), UniProt O60341); test: 10-dose IC50 fluorescence coupling enzyme assay, LSD1 demethylase activity on histone H3(1-21)K4me2 peptide (HRP/Amplex Red); assay type: biochemical; settings: 10 μM histone H3(1-21)K4me2 peptide substrate
[2] = Metabolic stability in murine liver microsomes; assay type: in vitro ADME; settings: mouse liver microsomes, 2 μM compound, NADPH
Protocol: The metabolic stability of compounds disclosed herein in pooled human liver microsomes (HLM) and pooled male mouse liver microsomes (MMLM) was determined according to the following protocol, in which the concentrations of compounds in reaction systems were evaluated by LC/MS/MS for estimating the stability in liver microsomes.
Pooled human liver microsomes (HMMCPL; PL050B) and pooled male mouse liver microsomes (MSMCPL; MS033) were purchased from CellzDirect (Invitrogen). Microsomes were stored at −80 C prior to use.
A master solution was prepared containing microsome (stock concentration 5 mg/mL, volume 50 μL, final concentration 0.5 mg/mL), MgCl2 solution (stock concentration 50 mM, volume 50 μL, final concentration 5 mM), phosphate buffer (stock concentration 200 mM, volume 250 μL, final concentration 100 mM), and water (volume […]. Five μL of 200 μM test compounds or control solution (control compound: verapamil) was then added. The final concentration of test compounds or verapamil in the reaction system was 2 μM. The mixture was pre-warmed at 37 C for 5 min.
The reaction was started with the addition of 50 μL of 10 mM NADPH solution at the final concentration of 1 mM and carried out at 37 C. 50 μL of ultra-pure H2O was used instead of NADPH solution in the negative control.
Aliquots of 50 μL were taken from the reaction solution at 0 and 30 min. The reaction was stopped by the addition of 3 volumes of cold methanol with IS (200 nM imipramine, 200 nM labetalol and 2 μM ketoprofen) at the designated time points. Samples were centrifuged at 16,000 g for 10 minutes to precipitate protein. Aliquot of 100 μL of the supernatant was diluted by 100 μL ultra-pure H2O, and the mixture was used for LC/MS/MS analysis. All experiments were performed in duplicate.
Samples were analyzed using liquid chromatography-mass spectrometry. The LC system comprised a Shimadzu liquid chromatograph separation system equipped with degasser DGU-20A3, solvent delivery unit LC-20AD, system controller CBM-20A, column oven CTO-10ASVP and CTC Analytics HTC PAL System. Chromatographic conditions included a Phenomenex column, 5.0μ C18 (2.0×50 mm); a mobile phase of 0.1% formic acid in acetonitrile and 0.1% formic acid in water; an elution rate of 500 μL/min; column temperature 25 C; injection volume 10 μL. Mass spectrometric analysis was performed using an API 4000 instrument from AB Inc. (Canada) with an ESI interface. The data acquisition and control system were created using Analyst 1.5.1 software from ABI Inc. A turbo spray ion source and electrospray ionization were employed in a multiple reaction monitoring (MRM) scan. Additional parameters included: collision gas, 6 L/min; curtain gas, 30 L/min; nebulize gas, 50 L/min; auxiliary gas, 50 L/min; temperature, 500 C; ionspray voltage, +5500 v (positive MRM). Quadripoles Q1 and Q3 were set to 456.2 and 200.2, respectively; declustering potential (DP), entrance potential (EP), and collision cell entrance potential (CE) were set to 120, 10, and 55 v, respectively; collision cell exit potential (CXP) was 12 v.
All calculations were carried out using Microsoft Excel. Peak areas were determined from extracted ion chromatograms. The control compounds were included in the assay. Any value of the compounds that was not within the specified limits was rejected and the experiment was repeated. The reaction system without the cofactors was used to exclude the misleading factor that resulted from instability of chemical itself.

Row | SMILES | IC50 [1] [nM] | % at 30 min, MLM [2] | % at 30 min, MLM ([2]; numeric values of Table 2) [%]
1 | C[C@@]1(NCCS(=O)(=O)C[C@H](NC(=O)c2ccc(F)cc2)C(=O)N2CCOCC2)C[C@H]1c1ccc(F)cc1 [Example 17, 4-fluoro-N—((R)-3-((2-(((1R,2S)-2-(4-fluorophenyl)-1-methylcyclopropyl)amino)ethyl)sulfonyl)-1-morpholino-1-oxopropan-2-yl)benzamide] | < 1000 | − (− is <20%) | 2.7
2 | COc1ccc([C@@H]2C[C@H]2NCCS(=O)(=O)C[C@H](NC(=O)c2ccc(F)cc2)C(=O)N2CCOCC2)cc1 [Example 18, 4-fluoro-N—((R)-3-((2-(((1R,2S)-2-(4-methoxyphenyl)cyclopropyl)amino)ethyl)sulfonyl)-1-morpholino-1-oxopropan-2-yl)benzamide] | < 1000 | − (− is <20%) | 
3 | O=C(N[C@@H](CS(=O)(=O)CCN[C@@H]1C[C@H]1c1ccc(F)cc1)C(=O)N1CCOCC1)c1ccc(F)cc1 [Example 19, 4-fluoro-N—((R)-3-((2-(((1R,2S)-2-(4-fluorophenyl)cyclopropyl)amino)ethyl)sulfonyl)-1-morpholino-1-oxopropan-2-yl)benzamide] | < 1000 | − (− is <20%) | 2.3
4 | CN(C(=O)c1ccccc1)[C@@H](CCCCN[C@]1(C)C[C@H]1c1ccc(F)cc1)C(=O)N1CCN(S(C)(=O)=O)CC1 [Example 27, N-[(2S)-6-[[(1R,2S)-2-(4-fluorophenyl)-1-methylcyclopropyl]amino]-1-(4-methanesulfonylpiperazin-1-yl)-1-oxohexan-2-yl]-N-methylbenzamide] | < 1000 | + (+ is ≥20%) | 
